From patent publication US10947242B2, “[1,2,4]triazolo[1,5and#8208;A]pyrimidine compounds as PDE2 inhibitors” (Janssen Pharmaceutica NV, priority 2016, dated 2021)
Like-named read-outs stand apart in the source and are kept apart here.

How the values were obtained:
[1] = target: T1, PDE2A (Rattus norvegicus, UniProt Q01062); assay: PDE2 occupancy by test compounds, ex-vivo autoradiography with [3H]B-17a; type: in vivo, Male Wistar rats; details: for receptor occupancy at 10 mg/kg: percentage receptor occupancy, ex-vivo autoradiography, striatum; for ED50: read-out: PDE Occupancy ED50
T1 construct: Twenty μm-thick striatal sections were cut; from tissue; host or cells: rat brain, striatal sections
T1 sequence (Q01062 1-928): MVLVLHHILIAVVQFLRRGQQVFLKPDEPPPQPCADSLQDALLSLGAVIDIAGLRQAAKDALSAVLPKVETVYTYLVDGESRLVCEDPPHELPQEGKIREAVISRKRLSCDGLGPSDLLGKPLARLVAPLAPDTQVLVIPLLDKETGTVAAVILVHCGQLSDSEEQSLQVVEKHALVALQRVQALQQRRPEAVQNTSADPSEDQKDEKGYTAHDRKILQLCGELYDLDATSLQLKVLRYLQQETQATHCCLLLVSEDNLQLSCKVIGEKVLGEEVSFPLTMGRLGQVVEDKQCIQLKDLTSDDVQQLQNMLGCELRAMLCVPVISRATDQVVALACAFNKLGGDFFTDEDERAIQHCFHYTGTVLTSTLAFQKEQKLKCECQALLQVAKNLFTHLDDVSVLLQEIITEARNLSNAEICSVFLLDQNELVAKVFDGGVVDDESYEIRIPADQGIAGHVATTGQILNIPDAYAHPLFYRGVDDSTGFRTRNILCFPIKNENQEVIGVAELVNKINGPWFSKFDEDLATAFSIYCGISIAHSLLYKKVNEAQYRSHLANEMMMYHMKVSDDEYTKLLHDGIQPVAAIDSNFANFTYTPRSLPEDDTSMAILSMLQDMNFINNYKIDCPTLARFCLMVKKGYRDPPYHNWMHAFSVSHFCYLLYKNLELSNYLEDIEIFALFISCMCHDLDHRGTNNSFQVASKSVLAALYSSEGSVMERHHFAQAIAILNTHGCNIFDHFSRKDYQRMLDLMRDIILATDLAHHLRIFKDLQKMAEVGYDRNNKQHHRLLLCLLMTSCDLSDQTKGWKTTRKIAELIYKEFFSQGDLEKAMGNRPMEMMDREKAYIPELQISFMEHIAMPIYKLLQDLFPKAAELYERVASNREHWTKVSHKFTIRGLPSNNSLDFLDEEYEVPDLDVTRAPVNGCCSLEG

[2] = target: T2, Human recombinant PDE3A (hPDE3A) (Homo sapiens, UniProt Q14432); assay: In vitro assay PDE3A (SPA, 3H-cAMP hydrolysis); type: biochemical; details: for IC50: hPDE3B pIC50, read-out: pIC50 (converted); for Emax: read-out: hPDE3B Emax, read-out: Emax;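 on all read-outs here: the method names PDE3A and the table heading PDE3B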
T2 construct: purchased Scottish Biomedical; host or cells: Sf9 insect cells
Outline: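 Radiometric SPA measuring [3H]-cAMP hydrolysis (0.4 μM cAMP, 2.4 μCi/ml) over 60 min at room temperature, in Tris pH 7.8 buffer with MgCl2 and EGTA, 1% DMSO. Enzyme: recombinant human brain PDE3A expressed in Sf9 cells, used as partially purified lysate. Counts compared with enzyme-free blanks and vehicle controls.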

[3] = target: T3, Human recombinant PDE2A (hPDE2A) (Homo sapiens, UniProt O00408); assay: In vitro assay PDE2A (SPA, 3H-cGMP hydrolysis); type: biochemical; details: for Emax: read-out: hPDE2A Emax
T3 construct: His tag (inferred from metal chelate purification); made in house; host or cells: Sf9 insect cells (baculovirus)

[4] = target: T4, Human recombinant PDE10A (hPDE10A) (Homo sapiens, UniProt Q9Y233); assay: In vitro assay PDE10A, human clone (SPA, 3H-cAMP hydrolysis); type: biochemical
T4 construct: His tag (inferred from metal chelate purification); made in house; host or cells: Sf9 insect cells (baculovirus)
Outline: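 Hydrolysis of 3H-cAMP (60 nM cAMP, 0.008 μCi tracer) proceeded for 60 min at room temperature, with the product detected by SPA bead scintillation counting. The enzyme was hPDE10A from baculovirus-infected Sf9 cells in Tris pH 7.8 buffer with MgCl2 and EGTA, and compounds were at 1% DMSO final. Blanks lacked enzyme.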

[5] = read-out: hPDE2A pIC50 (converted)
[6] = human clone by default (no (r) mark), read-out: hPDE10A2 or rPDE10A2 Emax
[7] = human clone by default (no (r) mark), read-out: hPDE10A2 or rPDE10A2 pIC50 (converted)
[8] = human recombinant PDE2A, 10 μM cGMP substrate, read-out: hPDE2A pIC50 (converted)
[9] = human clone (h), default, read-out: hPDE10A2 Emax
[10] = human clone (h), default, read-out: hPDE10A2 pIC50 (converted)
[11] = route PO (oral), drug dose producing 50% receptor occupancy

T3 sequence (O00408 whole entry): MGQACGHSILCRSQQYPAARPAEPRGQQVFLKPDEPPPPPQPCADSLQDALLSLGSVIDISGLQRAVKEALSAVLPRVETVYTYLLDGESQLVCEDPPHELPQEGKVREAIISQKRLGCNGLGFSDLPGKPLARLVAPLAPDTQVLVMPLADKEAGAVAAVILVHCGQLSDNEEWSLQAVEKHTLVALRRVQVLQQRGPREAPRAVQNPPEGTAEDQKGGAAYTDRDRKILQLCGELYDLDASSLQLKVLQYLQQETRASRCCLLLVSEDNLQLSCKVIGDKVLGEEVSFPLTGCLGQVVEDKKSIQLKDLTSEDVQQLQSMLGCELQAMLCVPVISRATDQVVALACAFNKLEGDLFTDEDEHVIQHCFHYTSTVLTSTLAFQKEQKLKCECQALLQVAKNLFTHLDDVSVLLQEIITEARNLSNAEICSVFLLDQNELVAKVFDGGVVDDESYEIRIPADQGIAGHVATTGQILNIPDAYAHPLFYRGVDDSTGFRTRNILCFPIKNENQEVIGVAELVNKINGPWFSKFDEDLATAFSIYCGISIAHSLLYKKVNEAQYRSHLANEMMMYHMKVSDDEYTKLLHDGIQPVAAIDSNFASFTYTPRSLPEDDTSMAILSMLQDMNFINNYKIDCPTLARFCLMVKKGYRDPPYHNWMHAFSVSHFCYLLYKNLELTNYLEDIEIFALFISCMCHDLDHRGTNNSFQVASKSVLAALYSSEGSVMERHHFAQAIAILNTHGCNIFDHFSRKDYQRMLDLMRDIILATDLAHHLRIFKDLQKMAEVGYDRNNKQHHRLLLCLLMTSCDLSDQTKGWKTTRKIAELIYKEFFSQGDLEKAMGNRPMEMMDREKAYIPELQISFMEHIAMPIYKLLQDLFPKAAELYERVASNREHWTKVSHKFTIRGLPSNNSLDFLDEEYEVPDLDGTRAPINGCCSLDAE
T4 sequence (Q9Y233 267-1055): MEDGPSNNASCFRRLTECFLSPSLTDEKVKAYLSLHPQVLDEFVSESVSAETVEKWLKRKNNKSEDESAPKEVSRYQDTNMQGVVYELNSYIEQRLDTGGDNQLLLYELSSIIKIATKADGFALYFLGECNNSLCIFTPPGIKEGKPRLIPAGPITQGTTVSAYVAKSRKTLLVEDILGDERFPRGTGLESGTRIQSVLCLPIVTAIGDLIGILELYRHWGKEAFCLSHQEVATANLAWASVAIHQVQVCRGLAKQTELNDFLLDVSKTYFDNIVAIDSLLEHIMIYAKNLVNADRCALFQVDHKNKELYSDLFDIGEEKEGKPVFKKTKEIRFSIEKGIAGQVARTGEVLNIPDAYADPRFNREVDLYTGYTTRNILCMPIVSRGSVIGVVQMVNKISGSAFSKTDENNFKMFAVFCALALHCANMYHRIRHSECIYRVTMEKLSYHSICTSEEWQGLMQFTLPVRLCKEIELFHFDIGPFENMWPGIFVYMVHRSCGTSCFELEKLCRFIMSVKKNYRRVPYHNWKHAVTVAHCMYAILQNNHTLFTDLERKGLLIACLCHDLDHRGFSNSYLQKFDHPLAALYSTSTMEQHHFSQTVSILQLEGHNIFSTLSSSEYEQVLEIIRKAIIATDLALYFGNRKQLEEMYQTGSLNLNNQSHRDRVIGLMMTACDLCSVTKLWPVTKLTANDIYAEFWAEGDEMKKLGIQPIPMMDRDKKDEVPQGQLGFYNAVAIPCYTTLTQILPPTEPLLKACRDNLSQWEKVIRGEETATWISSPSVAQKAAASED
T2 sequence (Q14432 whole entry): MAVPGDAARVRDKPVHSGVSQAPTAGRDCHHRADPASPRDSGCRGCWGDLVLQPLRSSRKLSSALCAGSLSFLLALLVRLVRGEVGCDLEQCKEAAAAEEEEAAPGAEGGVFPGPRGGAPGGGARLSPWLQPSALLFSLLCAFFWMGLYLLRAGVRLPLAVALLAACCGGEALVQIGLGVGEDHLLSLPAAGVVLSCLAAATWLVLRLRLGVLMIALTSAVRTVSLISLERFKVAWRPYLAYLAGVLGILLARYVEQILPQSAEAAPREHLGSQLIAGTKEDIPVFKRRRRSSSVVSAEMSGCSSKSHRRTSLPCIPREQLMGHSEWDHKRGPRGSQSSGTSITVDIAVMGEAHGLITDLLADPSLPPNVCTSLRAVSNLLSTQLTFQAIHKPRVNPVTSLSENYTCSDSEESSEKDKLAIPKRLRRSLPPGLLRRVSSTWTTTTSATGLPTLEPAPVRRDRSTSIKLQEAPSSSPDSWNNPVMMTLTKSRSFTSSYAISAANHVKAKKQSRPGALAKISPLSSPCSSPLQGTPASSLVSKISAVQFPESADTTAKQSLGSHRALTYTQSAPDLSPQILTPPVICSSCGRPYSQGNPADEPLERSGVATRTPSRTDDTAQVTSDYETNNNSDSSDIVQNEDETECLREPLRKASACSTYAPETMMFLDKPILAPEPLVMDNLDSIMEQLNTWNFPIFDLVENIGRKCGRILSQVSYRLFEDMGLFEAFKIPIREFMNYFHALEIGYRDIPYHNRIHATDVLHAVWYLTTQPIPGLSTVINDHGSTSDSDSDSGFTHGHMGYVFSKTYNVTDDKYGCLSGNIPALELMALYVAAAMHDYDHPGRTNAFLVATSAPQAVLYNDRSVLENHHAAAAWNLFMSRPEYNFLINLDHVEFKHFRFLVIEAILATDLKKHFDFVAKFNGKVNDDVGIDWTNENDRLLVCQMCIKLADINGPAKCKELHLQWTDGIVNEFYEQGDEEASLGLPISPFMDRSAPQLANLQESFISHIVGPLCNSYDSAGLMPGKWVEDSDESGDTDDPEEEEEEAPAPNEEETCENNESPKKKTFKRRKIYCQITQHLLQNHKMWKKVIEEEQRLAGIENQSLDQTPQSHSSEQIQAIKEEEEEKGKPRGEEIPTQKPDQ

Structure (SMILES)	receptor occupancy at 10 mg/kg ([1]; route PO (oral))	IC50 [2]	Emax [2]	Emax [3]	IC50 [3, 5]	Emax [4, 6]	IC50 [4, 7]	receptor occupancy at 10 mg/kg ([1]; po, route PO (oral))	receptor occupancy at 10 mg/kg ([1]; sc, route SC (subcutaneous))	IC50 [3, 8]	Emax ([3]; human recombinant PDE2A)	Emax [4, 9]	IC50 [4, 10]	receptor occupancy at 10 mg/kg ([1]; route SC (subcutaneous))	ED50 [1, 11]	ED50 ([1]; po)	IC50 ([3]; hPDE2A pIC50)	IC50 ([3]; hPDE2A pIC50, human recombinant PDE2A, 10 μM cGMP substrate)
Cc1cc(Cl)cc(C(=O)N2[C@H]3CC[C@H](c4cc(C(F)F)nc5ncnn45)[C@@H]2CC3)c1 [Compound 339]	-1%	4790 nM	69%	101%	6.61 nM	95%	617 nM											
COc1cc(C(=O)N2CC[C@@H](C)[C@H](c3cc(C(F)F)nc4ncnn34)C2)ccc1F [Compound 195]		5620 nM	70%	98%	4.47 nM			-7%	-13%	4.47 nM	98%	93%	372 nM					
C[C@@H]1CCN(C(=O)c2ccc3ncsc3c2)C[C@@]1(F)c1cc(C(F)F)nc2ncnn12 [Compound 33]		> 10000 nM	25%	99%	14.8 nM			-7%		14.8 nM	99%	67%	6170 nM					
COc1nc(N)ncc1C(=O)N1CC[C@@H](C)[C@H](c2cc(C(F)F)nc3ncnn23)C1 [Compound 38]		> 10000 nM	43%	100%	6.17 nM			1%		6.17 nM	100%	80%	2290 nM					
Cc1c(C(=O)N2[C@H]3CC[C@H](c4cc(C(F)F)nc5ncnn45)[C@@H]2CC3)oc2ccccc12 [Compound 273]		813 nM	96%	100%	2.34 nM	96%	977 nM					96%	977 nM	65%				
C[C@@H]1CCN(C(=O)c2ccc3c(c2)OCCC3)C[C@H]1c1cc(C(F)F)nc2ncnn12 [Compound 96]		398 nM	73%	100%	0.55 nM			1%		0.55 nM	100%	95%	33.1 nM					
COc1cc(C(=O)N2CC[C@@H](C)[C@H](c3cc(C(F)F)nc4ncnn34)C2)c(F)cn1 [Compound 36]		3980 nM	64%	100%	2.75 nM			32%				93%	468 nM		45.2 mg/kg			
O=C(c1cnc2ccccc2c1)N1[C@H]2CC[C@H](c3cc(C(F)F)nc4ncnn34)[C@@H]1CC2 [Compound 313]	28%	6030 nM	61%	97%	1.35 nM	86%	1230 nM											
Cc1cc(C(=O)N2[C@H]3CC[C@@H]2[C@H](c2cc(C(F)F)nc4ncnn24)CC3)cc(C)n1 [Compound 30]		> 10000 nM	8%	77%	3550 nM					3550 nM	77%	32%	> 10000 nM	0%				
C[C@@H]1CCN(C(=O)c2cc3c(nc2Cl)CCCC3)C[C@H]1c1cc(C(F)F)nc2ncnn12 [Compound 170]		2140 nM	84%	100%	4.57 nM			1%		4.57 nM	100%	84%	1290 nM					
Cc1cc(C(=O)N2[C@H]3CC[C@H](c4cc(C(F)F)nc5ncnn45)[C@@H]2CC3)cc(C(F)F)n1 [Compound 294]	17%	> 10000 nM	14%	99%	10.7 nM	81%	2090 nM											
Cc1cc(C(=O)N2C3CCC2[C@@H](c2cc(C(F)F)nc4ncnn24)CC3)cc(C2CC2)n1 (some centres unmarked) [Compound 28]		> 10000 nM	17%	101%	0.955 nM					0.955 nM	101%	95%	447 nM	49%		25 mg/kg		
Cc1cc(C(=O)N2CC[C@@H](C)[C@H](c3cc(C(F)F)nc4ncnn34)C2)cc(C)c1Cl [Compound 76]		1230 nM	91%	99%				17%				101%	31.6 nM				0.229 nM	0.229 nM
Cc1cc(C(=O)N2CC[C@@H](C)[C@H](c3cc(C(F)F)nc4ncnn34)C2)c(F)c(OC2CC2)n1 [Compound 392]		447 nM	97%	99%	1.12 nM	93%	263 nM	46%										
C[C@@H]1CCN(C(=O)c2cc(C3CC3)ncc2F)C[C@H]1c1cc(C(F)F)nc2ncnn12 [Compound 269]		3720 nM	78%	101%	0.708 nM	93%	692 nM	22%				93%	692 nM		24.2 mg/kg			
